Reference: ChEMBL document CHEMBL1649156, “Antianaerobic activity of sulopenem compared to six other agents” (2009)
Converted amounts (≈) assume the structure as drawn.

Tests used:
Format in all cases: functional
[1] = system: Parvimonas micra; experiment: Antimicrobial activity in Micromonas micros by CLSI agar dilution method
[2] = system: Clostridium perfringens; experiment: Antimicrobial activity in Clostridium perfringens by CLSI agar dilution method
[3] = system: Fusobacterium mortiferum; experiment: Antimicrobial activity in Fusobacterium mortiferum by CLSI agar dilution method
[4] = system: Cutibacterium acnes; experiment: Antimicrobial activity in Propionibacterium acnes by CLSI agar dilution method
[5] = system: Parabacteroides distasonis; experiment: Antimicrobial activity in Bacteroides distasonis by CLSI agar dilution method
[6] = system: Finegoldia magna; experiment: Antimicrobial activity in Finegoldia magna by CLSI agar dilution method
[7] = system: Paeniclostridium sordellii; experiment: Antimicrobial activity in Clostridium sordellii by CLSI agar dilution method; settings: Paraclostridium sordellii
[8] = system: Actinomyces; experiment: Antimicrobial activity in Actinomyces by CLSI agar dilution method
[9] = system: Prevotella corporis; experiment: Antimicrobial activity in Prevotella corporis by CLSI agar dilution method
[10] = system: Hoylesella loescheii; experiment: Antimicrobial activity in Prevotella loescheii by CLSI agar dilution method
[11] = system: Bacteroides stercoris; experiment: Antimicrobial activity in Bacteroides stercoris by CLSI agar dilution method
[12] = system: Fusobacterium necrophorum; experiment: Antimicrobial activity in Fusobacterium necrophorum by CLSI agar dilution method
[13] = system: Prevotella denticola; experiment: Antimicrobial activity in Prevotella denticola by CLSI agar dilution method
[14] = system: Lactobacillus; experiment: Antimicrobial activity in Lactobacillus by CLSI agar dilution method
[15] = system: Clostridium cadaveris; experiment: Antimicrobial activity in Clostridium cadaveris by CLSI agar dilution method
[16] = system: Prevotella intermedia; experiment: Antimicrobial activity in Prevotella intermedia by CLSI agar dilution method
[17] = system: Prevotella bivia; experiment: Antimicrobial activity in Prevotella bivia by CLSI agar dilution method
[18] = system: Anaerococcus prevotii; experiment: Antimicrobial activity in Anaerococcus prevotii by CLSI agar dilution method
[19] = system: Prevotella veroralis; experiment: Antimicrobial activity in Prevotella veroralis by CLSI agar dilution method
[20] = system: Clostridium butyricum; experiment: Antimicrobial activity in Clostridium butyricum by CLSI agar dilution method
[21] = system: Bacteroides thetaiotaomicron; experiment: Antimicrobial activity in Bacteroides thetaiotaomicron ATCC 29741 by CLSI agar dilution method
[22] = system: Bacteroides uniformis; experiment: Antimicrobial activity in Bacteroides uniformis by CLSI agar dilution method
[23] = system: Prevotella nigrescens; experiment: Antimicrobial activity in Prevotella nigrescens by CLSI agar dilution method
[24] = system: [Clostridium] innocuum; experiment: Antimicrobial activity in Clostridium innocuum by CLSI agar dilution method
[25] = system: Phocaeicola vulgatus; experiment: Antimicrobial activity in Bacteroides vulgatus by CLSI agar dilution method
[26] = system: Tissierella praeacuta; experiment: Antimicrobial activity in Clostridium hastiforme by CLSI agar dilution method
[27] = system: Prevotella bergensis; experiment: Antimicrobial activity in Prevotella bergensis by CLSI agar dilution method; settings: Hallella bergensis
[28] = system: Bacteroides fragilis; experiment: Antimicrobial activity in Bacteroides fragilis ATCC 25285 by CLSI agar dilution method
[29] = system: Paraclostridium bifermentans; experiment: Antimicrobial activity in Clostridium bifermentans by CLSI agar dilution method
[30] = system: Porphyromonas asaccharolytica; experiment: Antimicrobial activity in Porphyromonas asaccharolytica by CLSI agar dilution method
[31] = system: Anaerococcus tetradius; experiment: Antimicrobial activity in Anaerococcus tetradius by CLSI agar dilution method
[32] = system: Prevotella baroniae; experiment: Antimicrobial activity in Prevotella baroniae by CLSI agar dilution method; settings: Segatella baroniae
[33] = system: Clostridium tertium; experiment: Antimicrobial activity in Clostridium tertium by CLSI agar dilution method
[34] = system: Enterocloster clostridioformis; experiment: Antimicrobial activity in Clostridium clostridioforme by CLSI agar dilution method
[35] = system: Peptoniphilus asaccharolyticus; experiment: Antimicrobial activity in Peptoniphilus asaccharolyticus by CLSI agar dilution method
[36] = system: Bacteroides ovatus; experiment: Antimicrobial activity in Bacteroides ovatus by CLSI agar dilution method
[37] = system: Bifidobacterium; experiment: Antimicrobial activity in Bifidobacterium by CLSI agar dilution method
[38] = system: Clostridioides difficile; experiment: Antimicrobial activity in Clostridium difficile by CLSI agar dilution method
[39] = system: Peptostreptococcus anaerobius; experiment: Antimicrobial activity in Peptostreptococcus anaerobius by CLSI agar dilution method
[40] = system: Hoylesella oralis; experiment: Antimicrobial activity in Prevotella oralis group by CLSI agar dilution method
[41] = system: Bacteroides fragilis; experiment: Antimicrobial activity in Bacteroides fragilis by CLSI agar dilution method
[42] = system: Thomasclavelia ramosa; experiment: Antimicrobial activity in Clostridium ramosum by CLSI agar dilution method
[43] = system: Prevotella melaninogenica; experiment: Antimicrobial activity in Prevotella melaninogenica by CLSI agar dilution method
[44] = system: Prevotella salivae; experiment: Antimicrobial activity in Prevotella salivae by CLSI agar dilution method; settings: Segatella salivae
[45] = system: Fusobacterium nucleatum; experiment: Antimicrobial activity in Fusobacterium nucleatum by CLSI agar dilution method
[46] = system: Eggerthella lenta; experiment: Antimicrobial activity in Eggerthella lenta by CLSI agar dilution method
[47] = system: Prevotella disiens; experiment: Antimicrobial activity in Prevotella disiens by CLSI agar dilution method
[48] = system: Fusobacterium varium; experiment: Antimicrobial activity in Fusobacterium varium by CLSI agar dilution method
[49] = system: Eggerthella lenta; experiment: Antimicrobial activity in Eggerthella lenta ATCC 43055 by CLSI agar dilution method
[50] = system: Porphyromonas gingivalis; experiment: Antimicrobial activity in Porphyromonas gingivalis by CLSI agar dilution method
[51] = system: Prevotella buccae; experiment: Antimicrobial activity in Prevotella buccae by CLSI agar dilution method; settings: Segatella buccae
[52] = system: Clostridium sp.; experiment: Antimicrobial activity in Clostridium sp. by CLSI agar dilution method
[53] = system: Bacteroides thetaiotaomicron; experiment: Antimicrobial activity in Bacteroides thetaiotaomicron by CLSI agar dilution method
[54] = system: Prevotella sp.; experiment: Antimicrobial activity in Prevotella sp.by CLSI agar dilution method

C[C@@H](O)[C@H]1C(=O)N2C(C(=O)O)=C(S[C@H]3CC[S@@+]([O-])C3)S[C@H]12 [SULOPENEM]
MIC [1]: 0.125 µg/mL (≈ 0.358 µM) | MIC50 [1]: 0.125 µg/mL (≈ 0.358 µM) | MIC90 [1]: 0.125 µg/mL (≈ 0.358 µM) | MIC50 [2]: 0.125 µg/mL (≈ 0.358 µM) | MIC90 [2]: 0.25 µg/mL (≈ 0.715 µM) | MIC50 [3]: 0.5 µg/mL (≈ 1.43 µM) | MIC90 [3]: 0.5 µg/mL (≈ 1.43 µM) | MIC [4]: 0.125 µg/mL (≈ 0.358 µM) | MIC50 [4]: 0.125 µg/mL (≈ 0.358 µM) | MIC90 [4]: 0.25 µg/mL (≈ 0.715 µM) | MIC50 [5]: 0.5 µg/mL (≈ 1.43 µM) | MIC90 [5]: 1 µg/mL (≈ 2.86 µM) | MIC50 [6]: 0.25 µg/mL (≈ 0.715 µM) | MIC90 [6]: 0.25 µg/mL (≈ 0.715 µM) | MIC [7]: 0.125 µg/mL (≈ 0.358 µM) | MIC [8]: 0.25 µg/mL (≈ 0.715 µM) | MIC50 [8]: 0.5 µg/mL (≈ 1.43 µM) | MIC [9]: 0.03 µg/mL (≈ 0.0858 µM) | MIC50 [9]: 0.06 µg/mL (≈ 0.172 µM) | MIC [10]: 0.125 µg/mL (≈ 0.358 µM) | MIC [11]: 0.25 µg/mL (≈ 0.715 µM) | MIC50 [11]: 0.25 µg/mL (≈ 0.715 µM) | MIC [12]: ≤ 0.016 µg/mL | MIC50 [12]: ≤ 0.016 µg/mL | MIC50 [13]: 0.125 µg/mL (≈ 0.358 µM) | MIC90 [13]: 0.25 µg/mL (≈ 0.715 µM) | MIC50 [14]: > 8 µg/mL | MIC90 [14]: > 8 µg/mL | MIC [15]: 0.25 µg/mL (≈ 0.715 µM) | MIC50 [16]: 0.06 µg/mL (≈ 0.172 µM) | MIC90 [16]: 0.125 µg/mL (≈ 0.358 µM) | MIC50 [17]: 0.125 µg/mL (≈ 0.358 µM) | MIC90 [17]: 0.25 µg/mL (≈ 0.715 µM) | MIC [18]: 0.03 µg/mL (≈ 0.0858 µM) | MIC [19]: 0.06 µg/mL (≈ 0.172 µM) | MIC [20]: 0.5 µg/mL (≈ 1.43 µM) | MIC [21]: 0.06 µg/mL (≈ 0.172 µM) | MIC [22]: 0.25 µg/mL (≈ 0.715 µM) | MIC50 [22]: 0.25 µg/mL (≈ 0.715 µM) | MIC50 [23]: 0.06 µg/mL (≈ 0.172 µM) | MIC90 [23]: 0.125 µg/mL (≈ 0.358 µM) | MIC [24]: 0.25 µg/mL (≈ 0.715 µM) | MIC50 [25]: 0.5 µg/mL (≈ 1.43 µM) | MIC90 [25]: 1 µg/mL (≈ 2.86 µM) | MIC [26]: 2 µg/mL (≈ 5.72 µM) | MIC [27]: 0.125 µg/mL (≈ 0.358 µM) | MIC [28]: 0.06 µg/mL (≈ 0.172 µM) | MIC [29]: 0.5 µg/mL (≈ 1.43 µM) | MIC [30]: ≤ 0.016 µg/mL | MIC50 [31]: 0.125 µg/mL (≈ 0.358 µM) | MIC90 [31]: 0.25 µg/mL (≈ 0.715 µM) | MIC [32]: 0.06 µg/mL (≈ 0.172 µM) | MIC [33]: 1 µg/mL (≈ 2.86 µM) | MIC50 [33]: 1 µg/mL (≈ 2.86 µM) | MIC [34]: 1 µg/mL (≈ 2.86 µM) | MIC [35]: 0.03 µg/mL (≈ 0.0858 µM) | MIC50 [35]: 0.06 µg/mL (≈ 0.172 µM) | MIC [36]: 0.25 µg/mL (≈ 0.715 µM) | MIC50 [36]: 0.25 µg/mL (≈ 0.715 µM) | MIC90 [36]: 0.5 µg/mL (≈ 1.43 µM) | MIC50 [37]: 0.25 µg/mL (≈ 0.715 µM) | MIC90 [37]: 1 µg/mL (≈ 2.86 µM) | MIC [38]: 2 µg/mL (≈ 5.72 µM) | MIC50 [38]: 2 µg/mL (≈ 5.72 µM) | MIC90 [38]: 4 µg/mL (≈ 11.4 µM) | MIC50 [39]: 0.5 µg/mL (≈ 1.43 µM) | MIC90 [39]: 2 µg/mL (≈ 5.72 µM) | MIC [40]: ≤ 0.016 µg/mL | MIC50 [41]: 0.125 µg/mL (≈ 0.358 µM) | MIC90 [41]: 0.5 µg/mL (≈ 1.43 µM) | MIC [42]: 0.5 µg/mL (≈ 1.43 µM) | MIC50 [43]: 0.125 µg/mL (≈ 0.358 µM) | MIC90 [43]: 0.25 µg/mL (≈ 0.715 µM) | MIC [44]: 0.06 µg/mL (≈ 0.172 µM) | MIC [45]: ≤ 0.016 µg/mL | MIC50 [45]: ≤ 0.016 µg/mL | MIC90 [45]: 0.03 µg/mL (≈ 0.0858 µM) | MIC [46]: 1 µg/mL (≈ 2.86 µM) | MIC50 [46]: 1 µg/mL (≈ 2.86 µM) | MIC90 [46]: 1 µg/mL (≈ 2.86 µM) | MIC [47]: 0.03 µg/mL (≈ 0.0858 µM) | MIC50 [47]: 0.125 µg/mL (≈ 0.358 µM) | MIC50 [48]: 0.5 µg/mL (≈ 1.43 µM) | MIC90 [48]: 0.5 µg/mL (≈ 1.43 µM) | MIC [49]: 0.06 µg/mL (≈ 0.172 µM) | MIC [50]: 0.03 µg/mL (≈ 0.0858 µM) | MIC50 [51]: 0.125 µg/mL (≈ 0.358 µM) | MIC90 [51]: 0.25 µg/mL (≈ 0.715 µM) | MIC50 [52]: 2 µg/mL (≈ 5.72 µM) | MIC90 [52]: 4 µg/mL (≈ 11.4 µM) | MIC [53]: 0.25 µg/mL (≈ 0.715 µM) | MIC50 [53]: 0.25 µg/mL (≈ 0.715 µM) | MIC90 [53]: 0.5 µg/mL (≈ 1.43 µM) | MIC [54]: 0.03 µg/mL (≈ 0.0858 µM)
